Laboratory results reported in article PMC10004634 (PLOS ONE, 2023).
Read-outs that look alike come from different tables or passages of the source.

Key:
Assay in all cases: biochemical
Set-up in all cases: KINOMEscan scanMAX competition binding, DNA-tagged kinases, qPCR read-out, percent control at 300 nM
PIK3C2G = molecular target: T1, PIK3C2G (Homo sapiens, UniProt O75747)
T1 sequence (O75747 1-1486): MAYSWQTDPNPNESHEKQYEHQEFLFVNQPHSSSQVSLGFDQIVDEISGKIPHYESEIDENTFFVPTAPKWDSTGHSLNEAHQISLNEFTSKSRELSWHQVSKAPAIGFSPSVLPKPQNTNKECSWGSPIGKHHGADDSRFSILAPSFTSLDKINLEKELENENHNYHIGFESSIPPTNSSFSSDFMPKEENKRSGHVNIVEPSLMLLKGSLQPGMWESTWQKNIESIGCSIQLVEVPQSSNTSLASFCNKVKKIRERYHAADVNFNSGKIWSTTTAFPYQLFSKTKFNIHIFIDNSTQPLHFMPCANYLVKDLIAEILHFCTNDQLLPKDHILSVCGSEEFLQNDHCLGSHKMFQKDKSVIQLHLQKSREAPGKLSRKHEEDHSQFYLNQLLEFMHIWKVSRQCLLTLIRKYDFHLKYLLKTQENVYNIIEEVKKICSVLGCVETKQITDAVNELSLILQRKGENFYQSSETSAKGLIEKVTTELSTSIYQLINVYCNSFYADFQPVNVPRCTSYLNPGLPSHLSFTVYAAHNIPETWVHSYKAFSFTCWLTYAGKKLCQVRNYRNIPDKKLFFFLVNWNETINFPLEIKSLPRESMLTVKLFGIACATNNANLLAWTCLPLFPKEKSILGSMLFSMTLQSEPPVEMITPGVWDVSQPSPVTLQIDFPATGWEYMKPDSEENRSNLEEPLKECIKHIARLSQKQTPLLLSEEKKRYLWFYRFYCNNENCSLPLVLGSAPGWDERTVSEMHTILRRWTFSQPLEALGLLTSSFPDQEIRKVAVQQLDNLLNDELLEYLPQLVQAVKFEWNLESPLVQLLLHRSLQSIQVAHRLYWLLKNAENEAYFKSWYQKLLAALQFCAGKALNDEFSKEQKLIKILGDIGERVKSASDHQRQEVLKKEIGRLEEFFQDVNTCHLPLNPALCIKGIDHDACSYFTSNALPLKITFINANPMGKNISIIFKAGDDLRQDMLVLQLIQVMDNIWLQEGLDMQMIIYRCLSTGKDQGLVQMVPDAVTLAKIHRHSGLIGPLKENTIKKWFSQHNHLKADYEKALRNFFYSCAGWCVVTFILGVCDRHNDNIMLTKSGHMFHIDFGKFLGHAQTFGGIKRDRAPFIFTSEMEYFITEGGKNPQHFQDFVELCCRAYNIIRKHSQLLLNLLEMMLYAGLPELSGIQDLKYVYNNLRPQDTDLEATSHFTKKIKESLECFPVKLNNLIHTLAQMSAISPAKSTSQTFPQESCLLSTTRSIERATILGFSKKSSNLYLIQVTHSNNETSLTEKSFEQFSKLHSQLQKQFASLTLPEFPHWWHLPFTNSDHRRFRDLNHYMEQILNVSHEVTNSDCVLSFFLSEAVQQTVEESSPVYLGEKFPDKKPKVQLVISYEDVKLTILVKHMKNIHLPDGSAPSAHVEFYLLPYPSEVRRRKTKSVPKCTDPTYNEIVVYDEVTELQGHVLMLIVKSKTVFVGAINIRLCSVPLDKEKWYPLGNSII

MAP4K4 = MAP4K4 (Homo sapiens, UniProt O95819)
MAP4K4, sequence (O95819 whole entry): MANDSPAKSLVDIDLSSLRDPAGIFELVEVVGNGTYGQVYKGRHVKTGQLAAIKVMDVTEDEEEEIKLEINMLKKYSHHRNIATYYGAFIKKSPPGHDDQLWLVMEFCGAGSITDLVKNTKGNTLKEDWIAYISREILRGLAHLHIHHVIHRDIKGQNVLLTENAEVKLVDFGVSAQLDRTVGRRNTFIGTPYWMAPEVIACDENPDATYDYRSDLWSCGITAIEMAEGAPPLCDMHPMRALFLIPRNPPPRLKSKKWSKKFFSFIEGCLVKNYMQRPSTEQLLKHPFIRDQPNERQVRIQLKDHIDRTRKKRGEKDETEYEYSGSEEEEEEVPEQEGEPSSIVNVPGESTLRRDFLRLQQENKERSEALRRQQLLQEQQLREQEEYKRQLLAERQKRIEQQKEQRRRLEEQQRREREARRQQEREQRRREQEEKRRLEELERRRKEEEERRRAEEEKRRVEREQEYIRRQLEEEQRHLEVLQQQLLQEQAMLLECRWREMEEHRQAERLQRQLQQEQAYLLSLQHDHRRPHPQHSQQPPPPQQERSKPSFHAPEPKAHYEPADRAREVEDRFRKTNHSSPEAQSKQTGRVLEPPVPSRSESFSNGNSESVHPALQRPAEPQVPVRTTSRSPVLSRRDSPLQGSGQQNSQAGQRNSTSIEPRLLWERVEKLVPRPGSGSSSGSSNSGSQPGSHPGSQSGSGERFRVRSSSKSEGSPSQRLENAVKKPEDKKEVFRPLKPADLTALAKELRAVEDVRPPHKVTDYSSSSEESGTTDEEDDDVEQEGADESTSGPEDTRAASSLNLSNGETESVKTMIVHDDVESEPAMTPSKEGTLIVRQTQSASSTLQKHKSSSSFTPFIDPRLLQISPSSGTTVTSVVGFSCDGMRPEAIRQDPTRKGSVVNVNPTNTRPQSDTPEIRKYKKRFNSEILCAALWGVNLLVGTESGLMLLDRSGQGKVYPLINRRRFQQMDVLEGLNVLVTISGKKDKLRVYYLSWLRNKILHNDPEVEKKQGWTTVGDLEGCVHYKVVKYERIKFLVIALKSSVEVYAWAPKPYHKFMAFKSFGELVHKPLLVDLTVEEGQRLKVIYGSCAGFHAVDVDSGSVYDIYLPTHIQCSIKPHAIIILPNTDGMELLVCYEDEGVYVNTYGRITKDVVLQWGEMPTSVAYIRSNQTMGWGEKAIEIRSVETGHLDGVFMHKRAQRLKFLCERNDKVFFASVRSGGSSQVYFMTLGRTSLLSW

FLT3(N841I) = molecular target: T2, FLT3(N841I) (Homo sapiens, UniProt P36888, N841I)
T2 sequence (P36888 1-993 N841I): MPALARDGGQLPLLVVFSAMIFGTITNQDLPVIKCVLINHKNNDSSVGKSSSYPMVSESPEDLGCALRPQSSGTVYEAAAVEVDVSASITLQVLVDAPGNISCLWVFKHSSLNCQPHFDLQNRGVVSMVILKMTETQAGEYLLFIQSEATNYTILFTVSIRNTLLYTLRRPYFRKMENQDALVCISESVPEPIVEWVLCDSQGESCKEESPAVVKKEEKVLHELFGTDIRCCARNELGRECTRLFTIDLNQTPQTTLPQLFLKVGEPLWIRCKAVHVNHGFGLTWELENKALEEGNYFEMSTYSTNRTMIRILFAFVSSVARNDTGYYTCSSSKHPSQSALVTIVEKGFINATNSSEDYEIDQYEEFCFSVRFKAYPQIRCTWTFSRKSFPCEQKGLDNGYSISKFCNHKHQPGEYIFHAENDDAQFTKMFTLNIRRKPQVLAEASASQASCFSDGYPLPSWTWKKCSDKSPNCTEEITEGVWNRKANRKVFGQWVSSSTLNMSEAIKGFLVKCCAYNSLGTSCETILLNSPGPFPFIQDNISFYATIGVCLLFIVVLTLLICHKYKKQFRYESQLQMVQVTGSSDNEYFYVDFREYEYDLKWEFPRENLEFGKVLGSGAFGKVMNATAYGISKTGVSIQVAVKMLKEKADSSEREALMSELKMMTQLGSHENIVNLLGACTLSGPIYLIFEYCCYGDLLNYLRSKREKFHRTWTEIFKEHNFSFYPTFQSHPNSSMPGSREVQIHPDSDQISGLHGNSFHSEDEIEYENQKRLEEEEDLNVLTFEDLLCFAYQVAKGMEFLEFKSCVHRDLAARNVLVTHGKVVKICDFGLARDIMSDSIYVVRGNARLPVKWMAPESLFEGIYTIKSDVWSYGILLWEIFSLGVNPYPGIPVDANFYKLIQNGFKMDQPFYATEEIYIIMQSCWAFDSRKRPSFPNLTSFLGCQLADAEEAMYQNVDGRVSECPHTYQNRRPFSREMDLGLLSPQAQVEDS

[1] = read-out: Percent control / Tirabrutinib
[2] = read-out: Percent control / Zanubrutinib
[3] = read-out: Percent control / Acalabrutinib
[4] = read-out: Percent control / Ibrutinib

CC#CC(=O)N1CC[C@@H](n2c(=O)n(-c3ccc(Oc4ccccc4)cc3)c3c(N)ncnc32)C1 [Tirabrutinib]
remaining binding at 0.3 µM (PIK3C2G; [1]): 98%
remaining binding at 0.3 µM (MAP4K4; [1]): 98%

C=CC(=O)N1CCC([C@@H]2CCNc3c(C(N)=O)c(-c4ccc(Oc5ccccc5)cc4)nn32)CC1 [Zanubrutinib]
remaining binding at 0.3 µM (PIK3C2G; [2]): 74%
remaining binding at 0.3 µM (MAP4K4; [2]): 100%
remaining binding at 0.3 µM (FLT3(N841I); [2]): 100%

CC#CC(=O)N1CCC[C@H]1c1nc(-c2ccc(C(=O)Nc3ccccn3)cc2)c2c(N)nccn12 [Acalabrutinib]
remaining binding at 0.3 µM (PIK3C2G; [3]): 74%
remaining binding at 0.3 µM (MAP4K4; [3]): 92%
remaining binding at 0.3 µM (FLT3(N841I); [3]): 85%

C=CC(=O)N1CCC[C@@H](n2nc(-c3ccc(Oc4ccccc4)cc3)c3c(N)ncnc32)C1 [Ibrutinib]
remaining binding at 0.3 µM (PIK3C2G; [4]): 97%
remaining binding at 0.3 µM (MAP4K4; [4]): 98%
remaining binding at 0.3 µM (FLT3(N841I); [4]): 39%
